In patent US8197859B2, “Lipolysis stimulator” (Kao Corporation, priority 2006, dated 2012):

How the values were obtained:
Assay type in all cases: cell-based, rat (male Wistar)
[1] = test system: free adipocytes from abdominal subcutaneous adipose tissue; test: Test Example 3: lipolysis-stimulating activity (free glycerol) in free adipocytes with norepinephrine; Huang Hua Cai extract and aminophylline; details: Rattus norvegicus, Adipocyte, aminophylline singly, 90 nM norepinephrine, control = 100%
Procedure: (§1) Specifically, free adipocytes were recovered from the abdominal subcutaneous adipose tissue of each of one to three male Wistar rats (each having a body weight of 170 to 230 g) by use of a collagenase solution.
(§2) The free adipocytes were incubated at 37° C. for 2 hours in a Hanks buffer solution containing bovine serum albumin and 90 nM norepinephrine (reaction mixture) to which each test substance had been added. The resultant free glycerol was assayed through an enzymatic method (Free Glycerol Reagent, product of Sigma-Aldrich).
(§3) As a control, adipocytes were incubated in the same buffer containing only norepinephrine but no test substance.
(§4) Lipolysis-stimulating activity was calculated by the following equation, with 100% being a control value. Lipolysis-stimulating activity(%)=100×(free glycerol in each group)/(free glycerol in control group)
The procedure of Test Example 1 was repeated, except that caffeine was changed to aminophylline. The following substances were tested: and two different mixtures of Huang Hua Cai extract and aminophylline (hereinafter referred to as “Huang Hua Cai-aminophylline mixture”), i.e., Huang Hua Cai-aminophylline mixture 1 (Huang Hua Cai extract+1 μg/mL aminophylline), and a Huang Hua Cai-aminophylline mixture 2 (Huang Hua Cai extract+3 μg/mL aminophylline).
Aminophylline employed in the test was a commercial product (Sigma-Aldrich). […]

[2] = test system: free adipocytes from abdominal subcutaneous adipose tissue; test: Test Example 1: lipolysis-stimulating activity (free glycerol) in free adipocytes with norepinephrine; Huang Hua Cai extract and caffeine; details: Rattus norvegicus, Adipocyte, caffeine singly, 90 nM norepinephrine, 37° C., 2 hours, control = 100%
Procedure: The Rodbell's method (Rodbell, M., J. Biol. Chem., 239, 375 (1964)) was employed. Specifically, free adipocytes were recovered from the abdominal subcutaneous adipose tissue of each of one to three male Wistar rats (each having a body weight of 170 to 230 g) by use of a collagenase solution.
The following substances were tested: the Huang Hua Cai extract (singly), caffeine (singly), and two different mixtures of Huang Hua Cai extract and caffeine (hereinafter referred to as “Huang Hua Cai-caffeine mixture”), i.e., Huang Hua Cai-caffeine mixture 1 (Huang Hua Cai extract+10 μg/mL caffeine), and Huang Hua Cai-caffeine mixture 2 (Huang Hua Cai extract+30 μg/mL caffeine).
as §2
To the reaction mixture, added the Huang Hua Cai extract at the final concentration of 0, 3, 10, 30 and 100 μg/mL, respectively, and caffeine at the final concentration of 0, 10 and 30 μg/mL, respectively. […]
Lipolysis-stimulating activity was calculated by the following equation, with 100% being a control value. […]

[3] = test system: free adipocytes from abdominal subcutaneous adipose tissue; test: Test Example 2: lipolysis-stimulating activity (free glycerol) in free adipocytes with norepinephrine; Huang Hua Cai extract and theophylline; details: Rattus norvegicus, Adipocyte, theophylline singly, 90 nM norepinephrine, control = 100%
Procedure: as §1, §2, §3, §4
The following substances were tested: the Huang Hua Cai extract (singly), theophylline (singly), and two different mixtures of Huang Hua Cai extract and theophylline (hereinafter referred to as “Huang Hua Cai-theophylline mixture”), i.e., Huang Hua Cai-theophylline mixture 1 (Huang Hua Cai extract+1 μg/mL theophylline), and a Huang Hua Cai-theophylline mixture 2 (Huang Hua Cai extract+3 μg/mL theophylline). […]

Cn1c(=O)c2[nH]cnc2n(C)c1=O [Aminophylline, aminophylline]
activity at 1 µg/mL ([1]; 1 μg/mL): 140% | activity at 3 µg/mL ([1]; 3 μg/mL): 197%

Cn1c(=O)c2c(ncn2C)n(C)c1=O [Caffeine, caffeine]
activity at 10 µg/mL ([2]; 10 μg/mL): 157% | activity at 30 µg/mL ([2]; 30 μg/mL): 207%

Cn1c(=O)c2[nH]cnc2n(C)c1=O [Theophylline, theophylline]
activity at 1 µg/mL ([3]; 1 μg/mL): 142% | activity at 3 µg/mL ([3]; 3 μg/mL): 188%
